Laboratory results: paper PMC5384759 (ACS Chemical Neuroscience, 2016)
Like-named read-outs stand apart in the source and are kept apart here.

Columns and labels:
[1] = format: in vivo, CD-1 mice; details: for half-life / AUC: female, CD-1, mouse, ip; for AUC: area under the concentration-time curve
[2] = format: in vivo, CD-1 mice
[3] = CIT metabolism in placental microsomal preparations; format: in vitro ADME, mice; details: E14 and E18, 500 ng/mL CIT, 2 h
[4] = CIT metabolism in fetal liver microsomal preparations; format: in vitro ADME, mice; details: 2 h incubation
[5] = Ex vivo transplacental transfer of CIT and DCIT; format: in vitro ADME, mice
SERT = details: read-out: inhibitory constant (Ki) of SERT-mediated 5-HT uptake; cited from earlier work
[6] = cited from earlier work
[7] = patients, racemic CIT; cited from earlier work
[8] = nonpregnant mice, fixed dose 0.6 mg CIT ip, serum
[9] = pregnant mice GD14, weight-adjusted dose 20 mg/kg CIT ip, maternal serum
[10] = pregnant mice GD18, weight-adjusted dose 20 mg/kg CIT ip, maternal serum
[11] = pregnant mice GD18FD, fixed dose 0.6 mg CIT ip, maternal serum

SMILES: CN(C)CCCC1(c2ccc(F)cc2)OCc2cc(C#N)ccc21 (racemic) [CIT, (±)-citalopram]
- increase in AUC in the GD18 group over the GD18FD dams ([1]; 20 mg/kg vs fixed 0.6 mg CIT ip, dose increased by 100%): 141%
- half-life ([1]; maternal serum, 0.6 mg): 55.8 ± 3.6 min
- AUC ([1]; maternal serum, 0.6 mg, pregnant mice GD18FD, fixed dose 0.6 mg CIT ip): 927 ± 28 ng·h/mL
- half-life ([1]; maternal serum, 20 mg/kg): 64.8 ± 4.2 min
- half-life ([1]; serum, 0.6 mg): 63.6 ± 2.4 min
- AUC ([1]; serum, 0.6 mg, nonpregnant mice, fixed dose 0.6 mg CIT ip): 1230 ± 39 ng·h/mL
- half-life ([1]; serum, 20 mg/kg): 63 ± 1.8 min
- reduction in the AUC of serum CIT in GD18FD dams compared to nonpregnant mice ([1]; fixed dose 0.6 mg CIT ip): 25%
- CIT absorption phase ([1]; nonpregnant mice, fixed dose 0.6 mg CIT ip): 1.67
- C0, peak concentration [1, 8]: 2050 ± 36 ng/mL
- CL, clearance [1, 8]: 486 ± 9 mL·h
- VD, volume of distribution [1, 8]: 29.3 ± 2.3 mL
- AUCdn, dose-normalized AUC [1, 9]: 1.45 ± 0.10 (ng × h/mL)μg
- C0, peak concentration [1, 9]: 2278 ± 31 ng/mL
- CL, clearance [1, 9]: 689 ± 15 mL·h
- VD, volume of distribution [1, 9]: 41.7 ± 2.5 mL
- AUCdn, dose-normalized AUC [1, 10]: 1.86 ± 0.20 (ng × h/mL)μg
- C0, peak concentration [1, 10]: 2353 ± 33 ng/mL
- VD, volume of distribution [1, 10]: 50.9 ± 2.0 mL
- CIT absorption phase ([1]; pregnant mice GD18FD, fixed dose 0.6 mg CIT ip): 1.76
- AUCdn, dose-normalized AUC [1, 11]: 1.48 ± 0.21 (ng × h/mL)μg
- C0, peak concentration [1, 11]: 1667 ± 38 ng/mL
- CL, clearance [1, 11]: 647 ± 20 mL·h
- VD, volume of distribution [1, 11]: 36.0 ± 2.6 mL
- increase in VD as gestation advanced from GD14 to GD18 ([1]; weight-adjusted dose 20 mg/kg CIT ip): 22%
- time of peak fetal serum CIT concentration following maternal drug injection ([2]; E14 and E18 fetuses, maternal 20 mg/kg CIT ip): 15 min
- CIT to DCIT metabolic capacity of placental microsomes [3]: no significant CIT to DCIT metabolic capacity
- DCIT generation from fetal liver microsomes ([4]; E14, 500 ng/mL CIT): no measurable DCIT generation
- DCIT generation from fetal liver microsomes ([4]; E18, 500 ng/mL CIT): significant rate of CIT to DCIT conversion

SMILES: CNCCCC1(c2ccc(F)cc2)OCc2cc(C#N)ccc21 (stereo not drawn) [DCIT, desmethylcitalopram]
- time to peak DCIT concentration in fetal serum ([2]; E14, after maternal 20 mg/kg CIT ip): 1 h
- time to peak DCIT concentration in fetal serum ([2]; E18, after maternal 20 mg/kg CIT ip): 2.5 h
- DCIT in fetal eluate during placental perfusion with CIT (placental metabolism) ([5]; E18 placenta perfused with 500 ng/mL CIT, 10 min intervals over 120 min): not detected
- transplacental transfer efficiency of DCIT relative to CIT (fold less efficient) ([5]; ex vivo perfusion, E18 placentas): ~2 fold
- Ki (SERT): 14 nM
- partition coefficient [6]: 0.28
- mean plasma S/R enantiomer ratio [7]: 0.7
